Reference: patent US9763995B2, “Polymer conjugates of protegrin peptides” (Nektar Therapeutics, priority 2008, dated 2017)

Assays:
rat red blood cells = test: Hemolysis assay; assay type: cell-based
Experimental: Hemolysis assay. Approximately 10 mL of blood was drawn from one adult rat into Na Heparin tube and kept in ice until use. Red blood cells were washed three times with 10 mL of cold DPBS ((−) CaCl2 and (−) MgCl2) and collected by sequential centrifugation at 3,000 g for 5 min at 4° C. Pellets of red blood cells were resuspended with DPBS ((−) CaCl2 and (−) MgCl2) and the total volume was brought up to initial volume of blood drawn. One mL of resuspended red blood cells was resuspended with 49 mL of DPBS ((−) CaCl2 and (−) MgCl2). Incubation mixture was prepared by 400 fold dilution of stock solution of test compounds with final volume of 800 μl. Final concentration of test compounds was equimolar to that of respective unconjugated compounds. Hemolysis incubation was done at 37° C. with mild agitation. For releasable conjugates, test compounds were preincubated in 1×PBS at 37° C. prior to hemolysis assay. Incubation mixture was centrifuged at 3,000 g for 5 min at 4° C., and the absorbance at 550 nm was read from supernatant. […] [table]

[1] = Pharmacokinetic studies of the protegrin conjugates, single IV dose; assay type: in vivo, Sprague-Dawley rats; settings: equivalent protein mass 1.6 mg/kg IV
Experimental: Twenty one (21) adult male Sprague-Dawley rats with indwelling jugular vein and carotid artery catheters (JVC/CAC) (Charles River Labs, Hollister, Calif.) were utilized for this study. The weight range of the animals was 313-346 grams. All animals were food fasted overnight. Prior to dosing the rats were weighed, the tails and cage cards were labeled for identification and the doses were calculated. Anesthesia was induced and maintained with 3.0-5.0% isoflurane. The JVC and CAC were externalized, flushed with HEP/saline (10 IU/mL HEP/mL saline), plugged, and labeled to identify the jugular vein and carotid artery The predose sample was collected from the JVC. […] Following the last collection point, the animals were euthanized. Bioanalytical analysis: analysis of the plasma samples was conducted using non-validated LC-MS/MS methods. Noncompartmental PK data analysis and report preparation was completed. PK analysis was performed using WinNonlin (Version 5.2, Mountain View, Calif.-94014). Concentrations in plasma that were below LLOQ were replaced with zeros prior to generating Tables and PK analysis. The following PK parameters were estimated using plasma concentration-time profile of each animal: • C0 Extrapolated concentration to time “zero” • Cmax Maximum (peak) concentration • AUCall Area under the concentration-time from zero to time of last concentration value • T1/2(Z) Terminal elimination half-life • AUCinf Area under the concentration-time from zero to time infinity • Tmax Time to reach maximum or peak concentration following administration • CL Total body clearance • Vz Volume of distribution based on terminal phase • Vss Volume of distribution at steady state • MRTlast Mean residence time to last observable concentration

[2] = non-releasable PEG conjugates, Sprague Dawley rats, Mean ± SD
[3] = protegrin-1 in plasma, rats, native or via releasable PEG conjugate

CC(C)C[C@H](NC(=O)[C@H](CCCNC(=N)N)NC(=O)CNC(=O)CNC(=O)[C@@H](N)CCCNC(=N)N)C(=O)N[C@H]1CSSC[C@@H](C(=O)N[C@H](C(=O)NCC(=O)N[C@@H](CCCNC(=N)N)C(N)=O)C(C)C)NC(=O)[C@H](C(C)C)NC(=O)[C@@H]2CSSC[C@H](NC(=O)[C@H](Cc3ccc(O)cc3)NC1=O)C(=O)N[C@@H](CCCNC(=N)N)C(=O)N[C@@H](CCCNC(=N)N)C(=O)N[C@@H](CCCNC(=N)N)C(=O)N[C@@H](Cc1ccccc1)C(=O)N2 [Protegrin-1]
hemolytic effects / hemolytic activity (rat red blood cells; rat red blood cells, 37° C., relative to 100% hemolysis by 0.25% Triton X-100, releasable conjugates preincubated in 1XPBS at 37° C.): comparable to literature data
hemolytic activity retained compared to PG1 preincubated for 0 hr (rat red blood cells; red cells of rat, 96 h): about 60%
Tmax ([1]; male, Sprague-Dawley, rat, in vivo, protegrin-1 in plasma, rats, native or via releasable PEG conjugate): 1.8 min
AUCINF [1, 2]: 1160 ± 351 ng·h/mL
CL [1, 2]: 1470 ± 434^ mL/hr/kg
Cmax [1, 2]: 2050 ± 601 ng/mL
MRTlast [1, 2]: 31.2 ± 3 min
T1/2 [1, 2]: 21 ± 6 min
Vss [1, 2]: 0.848 ± 0.36 L/kg
AUCINF [1, 3]: 1160 ng·h/mL
Cmax [1, 3]: 2050 ng/mL
MRTlast [1, 3]: 31.2 min
T1/2 [1, 3]: 21 min
